{"source": "patent US20220279780A1", "about": "“AGRICULTURAL FORMULATION” (ISHIHARA SANGYO KAISHA, LTD., priority 2019, published 2022)", "origin": "cited, not measured here", "data": [{"smiles": "N#CCNC(=O)c1cnccc1C(F)(F)F", "note": "[flonicamid]", "values": [{"measurement": "water solubility", "value": "5,200 ppm"}]}]}
